Counter-ions that a name gives are not always drawn. Like-named read-outs stand apart in the source and are kept apart here.
How the values were obtained:
primary rat microglia [1] = assay: Cell toxicity (dead cells, size <150 μm2) in coated fibrin (cFib) assay;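 further: share of dead cells sized under 150 µm2 at 10 µM in fibrin-stimulated microglia HTS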
primary rat microglia [2] = assay: Cell toxicity (dead cells, size <150 μm2) in LPS assay
[3] = system: LPS-induced microglia activation; assay: Image-based assay of LPS-induced microglia activation (HTS and dose response); type: cell-based, rat; settings: for inhibition at 10 µM: Rattus norvegicus, Microglia, read-out: LPS % inhibition
[4] = system: fibrin-induced microglia activation; assay: Image-based assay of fibrin-induced microglia activation (HTS and dose response); type: cell-based, rat; settings: for inhibition at 10 µM: Rattus norvegicus, Microglia, read-out: Fibrin % inhibition
[5] = system: fibrin- and LPS-induced microglia activation; assay: cells; type: cell-based, rat
[6] = primary HTS, 10 μM, fibrin assay, dead cells size <150 μm2
[7] = primary HTS, 10 μM, LPS assay, dead cells size <150 μm2
[8] = primary HTS, 10 μM, LPS-stimulated primary microglia
[9] = primary HTS, 10 μM, fibrin-stimulated primary microglia
[10] = primary microglia HTS, fibrin stimulation, toxicity = cell size <150 μm2
[11] = primary microglia HTS, LPS stimulation, toxicity = cell size <150 μm2
[12] = 48 h, primary microglia HTS, LPS stimulation, activation = cell size >800 μm2
[13] = primary microglia HTS, fibrin stimulation, activation = cell size >800 μm2
[14] = quadrant by fibrin and LPS inhibition in HTS of 1907 compounds
[15] = primary microglia HTS, fibrin stimulation, decreased size (<150 μm^2) as marker of toxicity
[16] = primary microglia HTS, LPS stimulation, decreased size (<150 μm^2) as marker of toxicity
[17] = 48 h, primary microglia HTS, LPS stimulation, increased cell size (>800 μm^2) as marker of activation
[18] = primary microglia HTS, fibrin stimulation, increased cell size (>800 μm^2) as marker of activation
[19] = primary microglia HTS, 10 μM, fibrin assay, cell size <150 μm^2 as marker of toxicity
[20] = primary microglia HTS, 10 μM, LPS assay, cell size <150 μm^2 as marker of toxicity
[21] = primary microglia HTS, 10 μM, LPS-stimulated, cell size >800 μm^2 as marker of activation
[22] = primary microglia HTS, 10 μM, fibrin-stimulated, cell size >800 μm^2 as marker of activation
[23] = HTS of 1907 compounds, quadrant by fibrin and LPS inhibition
[24] = primary microglia HTS, LPS stimulation, increased cell size (>800 μm^2) as marker of activation

`CCN[C@H]1CN(CCCOC)S(=O)(=O)c2sc(S(N)(=O)=O)cc21` [Brinzolamide] was tested, and the “Fibrin % cell toxicity” value (primary rat microglia [1]; [6]) was 0%, the “LPS % cell toxicity” value (primary rat microglia [2]; [7]) was 0% and the inhibition at 10 µM [3, 8] was 5%. For the same compound, the inhibition at 10 µM [4, 9] was -3% and the “Quadrant (FIG. 5b)” value ([5]; primary HTS, 10 μM) was “Q4”.
For `O=C(O)c1cc(-c2ccccc2)nc2ccccc12` [Cinchophen], the “Fibrin % cell toxicity” value (primary rat microglia [1]; [6]) was 1%, the “LPS % cell toxicity” value (primary rat microglia [2]; [7]) was 0% and the inhibition at 10 µM [3, 8] was 36%. The inhibition at 10 µM [4, 9] was -9% and the “Quadrant (FIG. 5b)” value ([5]; primary HTS, 10 μM) was “Q4”.
In the case of `COc1ccccc1O` [Guaiacol], the “Fibrin % cell toxicity” value (primary rat microglia [1]; [10]) was 0%, the “LPS % cell toxicity” value (primary rat microglia [2]; [11]) was 0% and the inhibition at 10 µM [3, 12] was 11%. For the same compound, the inhibition at 10 µM [4, 13] was -51% and the “Quadrant (FIG. 5b)” value [5, 14] was “Q4”.
With `COc1ccc2cc1Oc1ccc(cc1)C[C@H]1c3c(cc4c(c3Oc3cc5c(cc3OC)CCN(C)[C@@H]5C2)OCO4)CCN1C` [Cepharanthine] the “Fibrin % cell toxicity” value (primary rat microglia [1]; [15]) was 85%, the “LPS % cell toxicity” value (primary rat microglia [2]; [16]) was 58% and the inhibition at 10 µM [3, 17] was 130%. For the same compound, the inhibition at 10 µM [4, 18] was 114% and the “Quadrant (FIG. 5b)” value [5, 14] was “Q2”.
`CC(=O)NS(=O)(=O)c1ccc(N)cc1` [Sulfacetamide] was tested, and the “Fibrin % cell toxicity” value (primary rat microglia [1]; [19]) was 1%, the “LPS % cell toxicity” value (primary rat microglia [2]; [20]) was 0% and the inhibition at 10 µM [3, 21] was 10%. For the same compound, the inhibition at 10 µM [4, 22] was -2% and the “Quadrant (FIG. 5b)” value [5, 23] was “Q4”.
In the case of `CCCCOc1ccc(CC(=O)NO)cc1` [Bufexamac], the “Fibrin % cell toxicity” value (primary rat microglia [1]; [6]) was 1%, the “LPS % cell toxicity” value (primary rat microglia [2]; [7]) was 0% and the inhibition at 10 µM [3, 8] was 17%. For the same compound, the inhibition at 10 µM [4, 9] was -2% and the “Quadrant (FIG. 5b)” value ([5]; primary HTS, 10 μM) was “Q4”.
With `CO[C@@]1(NC(=O)C2SC(=C(C(N)=O)C(=O)O)S2)C(=O)N2C(C(=O)O)=C(CSc3nnnn3C)CS[C@@H]21` (some centres unmarked) [Cefotetan] the “Fibrin % cell toxicity” value (primary rat microglia [1]; [6]) was 0%, the “LPS % cell toxicity” value (primary rat microglia [2]; [7]) was 0% and the inhibition at 10 µM [3, 8] was -5%. The inhibition at 10 µM [4, 9] was -11% and the “Quadrant (FIG. 5b)” value ([5]; primary HTS, 10 μM) was “Q4”.
For `CC(C(=O)O)c1ccc(CC2CCCC2=O)cc1` (centres unmarked) [Loxoprofen], the “Fibrin % cell toxicity” value (primary rat microglia [1]; [15]) was 1%, the “LPS % cell toxicity” value (primary rat microglia [2]; [16]) was 0% and the inhibition at 10 µM [3, 17] was 10%. For the same compound, the inhibition at 10 µM [4, 18] was -19% and the “Quadrant (FIG. 5b)” value [5, 14] was “Q4”.
With `CC(C)(C)NC[C@H](O)COc1nsnc1N1CCOCC1` [Timolol] the “Fibrin % cell toxicity” value (primary rat microglia [1]; [19]) was 1%, the “LPS % cell toxicity” value (primary rat microglia [2]; [20]) was 0% and the LPS % inhibition [3, 21] was −7%. The Fibrin % inhibition [4, 22] was 11% and the “Quadrant (FIG. 5b)” value [5, 23] was “Q4”.
`CC(C)(C)NC[C@H](O)COc1nsnc1N1CCOCC1` [Timolol Maleate] was tested, and the “Fibrin % cell toxicity” value (primary rat microglia [1]; [19]) was 0%, the “LPS % cell toxicity” value (primary rat microglia [2]; [20]) was 0% and the LPS % inhibition [3, 21] was 19%. The Fibrin % inhibition [4, 22] was −4% and the “Quadrant (FIG. 5b)” value [5, 23] was “Q4”.
`O=C(NCC1CCCCN1)c1cc(OCC(F)(F)F)ccc1OCC(F)(F)F` (centres unmarked) [Flecainide] was tested, and the “Fibrin % cell toxicity” value (primary rat microglia [1]; [10]) was 0%, the “LPS % cell toxicity” value (primary rat microglia [2]; [11]) was 0% and the inhibition at 10 µM [3, 12] was 5%. The inhibition at 10 µM [4, 13] was -35% and the “Quadrant (FIG. 5b)” value [5, 14] was “Q4”.
With `CCCCNc1cc(C(=O)O)cc(S(N)(=O)=O)c1Oc1ccccc1` [Bumetanide] the “Fibrin % cell toxicity” value (primary rat microglia [1]; [6]) was 1%, the “LPS % cell toxicity” value (primary rat microglia [2]; [7]) was 1% and the inhibition at 10 µM [3, 8] was 18%. The inhibition at 10 µM [4, 9] was -3% and the “Quadrant (FIG. 5b)” value ([5]; primary HTS, 10 μM) was “Q4”.
For `N=C(NCCCCCCNC(=N)NC(=N)Nc1ccc(Cl)cc1)NC(=N)Nc1ccc(Cl)cc1`, the “Fibrin % cell toxicity” value (primary rat microglia [1]; [15]) was 1%, the “LPS % cell toxicity” value (primary rat microglia [2]; [16]) was 8% and the LPS % inhibition [3, 24] was 69%. The Fibrin % inhibition [4, 18] was 15% and the “Quadrant (FIG. 5b)” value [5, 14] was “Q1”.
For `C[C@]12CCC(=O)C(O)=C1CC[C@@H]1[C@@H]2CC[C@]2(C)C(=O)CC[C@@H]12` [Formestane], the “Fibrin % cell toxicity” value (primary rat microglia [1]; [10]) was 1%, the “LPS % cell toxicity” value (primary rat microglia [2]; [11]) was 0% and the inhibition at 10 µM [3, 12] was 10%. For the same compound, the inhibition at 10 µM [4, 13] was -6% and the “Quadrant (FIG. 5b)” value [5, 14] was “Q4”.
In the case of `COc1c2occc2c(OC)c2c(=O)cc(C)oc12` [Khellin], the “Fibrin % cell toxicity” value (primary rat microglia [1]; [10]) was 0%, the “LPS % cell toxicity” value (primary rat microglia [2]; [11]) was 0% and the inhibition at 10 µM [3, 12] was 5%. For the same compound, the inhibition at 10 µM [4, 13] was -16% and the “Quadrant (FIG. 5b)” value [5, 14] was “Q4”.
`Cc1onc(-c2ccccc2)c1C(=O)N[C@@H]1C(=O)N2[C@@H]1SC(C)(C)[C@@H]2C(=O)[O-].[Na+]` [Oxacillin Sodium] was tested, and the “Fibrin % cell toxicity” value (primary rat microglia [1]; [15]) was 0%, the “LPS % cell toxicity” value (primary rat microglia [2]; [16]) was 0% and the LPS % inhibition [3, 24] was 11%. The Fibrin % inhibition [4, 18] was −20% and the “Quadrant (FIG. 5b)” value [5, 14] was “Q4”.
